# Assay results from article PMC12372887, “Mechanism and cellular actions of the potent AMPK inhibitor BAY-3827” (Science Advances, 2025).
# System: mouse primary adipocytes
# Assay: Immunoblot of signaling in primary adipocytes
# Type: cell-based
# Method: Epidydimal adipose tissue excised from mice was digested with collagenase (1 mg/ml) in Krebs-Ringer medium (120 mM NaCl, 4.7 mM KCl, 1.2 mM KH2PO4, and 1.2 mM MgSO4) containing 25 mM Hepes (pH 7.4), 200 nM adenosine, 2 mM glucose, and 3% (w/v) bovine serum albumin (BSA) (KRH buffer) at 37°C in a shaking incubator. Adipocytes were isolated by filtering and washing in KRH buffer. For preparation of protein extracts for Western blot, adipocyte suspensions [0.7 to 1 ml of 10% (v/v) cells] were preincubated with BAY-3827 or BAY-974 compounds or 0.1% DMSO for 1 hour at 37°C in a shaking (80 rpm) water bath followed by either 1 hour of incubation with 10 μM MK-8722 or 30 min with 0.1 nM insulin (Novo Nordisk) in KRH buffer, as indicated in the figure legends. […] Lysates were centrifuged at 13,000g for 15 min (4°C), and supernatant protein concentration was determined by the Bradford assay. […]
# For adipocyte experiments, cell lysates (25 μg protein) were heated at 95°C for 3 min in LDS sample buffer, subjected to polyacrylamide gel electrophoresis on precast Novex gradient gels (Thermo Fisher Scientific) and electrotransferred to nitrocellulose membranes. […] Luminescence signals were visualized in a ChemiDoc XRS+ (Bio-Rad) and quantified by densitometry using the software Image LabTM 5.1 (Bio-Rad). […]
structure (smiles),measurement,setting,value
"CCc1ccccc1C(=O)Nc1n[nH]c2c(C)c(F)c(C3C(C#N)=C(C)N(C)C(C)=C3C#N)cc12 [BAY-3827, N-[5-(3,5-dicyano-1,2,6-trimethyl-4H-pyridin-4-yl)-6-fluoro-7-methyl-1H-indazol-3-yl]-2-ethylbenzamide]",basal and insulin-stimulated phosphorylation of Akt and TBC1D4,10 μM,not significantly affected
same,Raptor phosphorylation,"varying doses, irrespective of MK-8722",dose-dependent reduction
